From ChEMBL document CHEMBL2375311, “Cytotoxic 3,4,5-trimethoxychalcones as mitotic arresters and cell migration inhibitors” (Eur J Med Chem, 2013)
The source made the active and inactive calls. The rule behind the calls is not given here.

Experiments:
L1210 = assay: Cytotoxicity against mouse L1210 cells after 24 hrs by MTT assay; format: functional, cell-based; conditions: L1210, 24 h
MDA-MB-231 [1] = assay: Antimigratory activity against human MDA-MB-231 cells at 1 uM after 22 hrs by scratch wound healing assay; format: functional
MDA-MB-231 [2] = assay: Antimigratory activity against human MDA-MB-231 cells at 0.5 to 5 uM after 22 hrs by scratch wound healing assay; format: functional, cell-based
HeLa [3] = assay: Cell cycle arrest in human HeLa cells assessed as disorganized microtubules at 62 nM after 24 hrs by Hoechst 33342 staining; format: functional, cell-based
HeLa [4] = assay: Antimitotic activity in human HeLa cells assessed as tubulin staining intensity at 1 nM after 24 hrs by Hoechst 33342 staining; format: functional, cell-based
HeLa [5] = assay: Antimitotic activity in human HeLa cells assessed as tubulin staining intensity at 5 nM after 24 hrs by Hoechst 33342 staining; format: functional, cell-based
HeLa [6] = assay: Antimitotic activity in human HeLa cells assessed as increase in phosphohistone H3 level after 24 hrs by Hoechst 33342 staining; format: functional
HeLa [7] = assay: Antimitotic activity in human HeLa cells assessed as tubulin intensity after 24 hrs by Hoechst 33342 staining; format: functional; conditions: read-out: MEC
HeLa [8] = assay: Antimitotic activity in human HeLa cells assessed as cell density loss after 24 hrs by Hoechst 33342 staining; format: functional, cell-based
HeLa [9] = assay: Antimitotic activity in human HeLa cells assessed as chromatin condensation after 24 hrs by Hoechst 33342 staining; format: functional; conditions: read-out: MEC
[10] = Inhibition of bovine brain tubulin assembly after 20 mins by spectrophotometric analysis; design: species or system Bos taurus
PBMC = assay: Cytotoxicity against human PBMC cells after 24 hrs by MTT assay; format: cell-based
Jurkat = assay: Cytotoxicity against human Jurkat cells after 48 hrs by MTT assay; format: functional, cell-based
REH = assay: Cytotoxicity against human REH cells after 48 hrs by MTT assay; format: functional, cell-based
MDA-MB-231 [11] = assay: Antimigratory activity against human MDA-MB-231 cells after 6 hrs by Boyden chamber migration assay; format: functional, cell-based; conditions: MDA-MB-231, 6 h
HeLa [12] = assay: Cell cycle arrest in human HeLa cells assessed as disorganized microtubules at 940 nM after 24 hrs by Hoechst 33342 staining; format: functional, cell-based
NIH3T3 = assay: Cytotoxicity against mouse NIH/3T3 cells after 24 hrs by MTT assay; format: cell-based; conditions: NIH3T3, 24 h
HUVEC = assay: Cytotoxicity against human HUVEC cells after 24 hrs by MTT assay; format: cell-based
HeLa [13] = assay: Cell cycle arrest in human HeLa cells assessed as disorganized microtubules at 470 nM after 24 hrs by Hoechst 33342 staining; format: functional, cell-based

COc1cc(C(=O)/C=C/c2cc(Cl)cc(Cl)c2)cc(OC)c1OC
IC50 (L1210): 44 µM

COc1cc2c(c(OC)c1OC)-c1ccc(OC)c(=O)cc1[C@@H](NC(C)=O)CC2 [COLCHICINE]
Activity (MDA-MB-231 [1]): 74%
Activity (MDA-MB-231 [2]): Active
Activity (HeLa [3]): Active
Activity (HeLa [4]): inactive
Activity (HeLa [5]): Active

COc1cc(C(=O)/C=C/c2ccc(Cl)cc2Cl)cc(OC)c1OC
IC50 (L1210): 52.5 µM

COc1ccc(/C=C/C(=O)c2cc(OC)c(OC)c(OC)c2)cc1
IC50 (L1210): 48 µM

COc1cc(/C=C/C(=O)c2cc(OC)c(OC)c(OC)c2)cc(OC)c1OC
IC50 (L1210): > 100 µM

COc1cc(OC)c(/C=C/C(=O)c2cc(OC)c(OC)c(OC)c2)c(OC)c1
IC50 (L1210): 62.5 µM

COc1cc(C(=O)/C=C/c2ccc3ccccc3c2)ccc1O
Activity (HeLa [6]): 1400 nM
minimal effective concentration (HeLa [7]): 1.1 µM
EC50 (HeLa [8]): 3.3 µM
minimal effective concentration (HeLa [9]): 2.2 µM
IC50 [10]: 3.6 µM
IC50 (PBMC): 35.6 µM
IC50 (Jurkat): 5.9 µM
IC50 (REH): 2.58 µM
IC50 (L1210): 54 µM

COc1cc(C(=O)/C=C/c2ccc(Cl)c(C(F)(F)F)c2)cc(OC)c1OC
IC50 (L1210): 47.5 µM

COc1cc(C(=O)/C=C/c2ccc(C)cc2)cc(OC)c1OC
IC50 (L1210): 50.5 µM

COc1cc(C(=O)/C=C/c2ccc(C)o2)cc(OC)c1OC
IC50 (L1210): 46.5 µM

COc1ccc(/C=C/C(=O)c2ccc3c(c2)OCO3)c(OC)c1OC
Activity (HeLa [6]): > 50000 nM
minimal effective concentration (HeLa [7]): > 50 µM
EC50 (HeLa [8]): > 50 µM
minimal effective concentration (HeLa [9]): > 50 µM
IC50 [10]: > 10 µM
IC50 (PBMC): 81.2 µM
IC50 (Jurkat): 30 µM
IC50 (REH): 23.6 µM
IC50 (L1210): 47.5 µM

COc1cc(OC)c(OC)cc1/C=C/C(=O)c1cc(OC)c(OC)c(OC)c1
IC50 (L1210): 42.5 µM

COc1cc(C(=O)/C=C/c2c(Cl)cccc2Cl)cc(OC)c1OC
IC50 (L1210): 50.5 µM

COc1cc(/C=C/C(=O)c2cc(OC)c(OC)c(OC)c2)ccc1O
IC50 (L1210): > 100 µM

COc1cc(C(=O)/C=C/c2ccc([N+](=O)[O-])cc2)cc(OC)c1OC
IC50 (L1210): > 100 µM

COc1cc(C(=O)/C=C/c2ccc(Cl)c(Cl)c2)cc(OC)c1OC
IC50 (L1210): 44 µM

COc1cc(C(=O)/C=C/c2cccc([N+](=O)[O-])c2)cc(OC)c1OC
IC50 (L1210): > 56 µM

COc1cc(C(=O)/C=C/c2ccc3ccccc3c2)cc(OC)c1OC
IC50 (MDA-MB-231 [11]): 1.09 µM
Activity (MDA-MB-231 [1]): 46%
Activity (MDA-MB-231 [2]): Active
Activity (HeLa [12]): Active
Activity (HeLa [4]): inactive
Activity (HeLa [5]): Active
Activity (HeLa [6]): 397 nM
EC50 (HeLa [8]): 0.684 µM
IC50 [10]: 2.2 µM
IC50 (PBMC): 18 µM
IC50 (NIH3T3): 34 µM
IC50 (HUVEC): 37 µM
IC50 (Jurkat): 0.5 µM
IC50 (REH): 0.73 µM
IC50 (L1210): 26 µM

O=C(/C=C/c1ccccc1)c1ccccc1 [CHALCONE]
Activity (HeLa [6]): > 50000 nM
minimal effective concentration (HeLa [7]): > 50 µM
EC50 (HeLa [8]): > 50 µM
minimal effective concentration (HeLa [9]): > 50 µM
IC50 [10]: > 10 µM
IC50 (PBMC): 27 µM
IC50 (Jurkat): 17.1 µM
IC50 (L1210): > 100 µM

COc1cc(C(=O)/C=C/c2ccc(Br)cc2)cc(OC)c1OC
IC50 (L1210): > 100 µM

CCCCOc1ccc(/C=C/C(=O)c2cc(OC)c(OC)c(OC)c2)cc1
IC50 (L1210): > 100 µM

COc1cc(C(=O)/C=C/c2ccc(Cl)cc2)cc(OC)c1OC
IC50 (L1210): 44.5 µM

COc1cc(C(=O)/C=C/c2ccc(F)cc2)cc(OC)c1OC
IC50 (L1210): 46.5 µM

COc1cc(C(=O)/C=C/c2ccc(N(C)C)cc2)cc(OC)c1OC (mixture of isomers)
IC50 (MDA-MB-231 [11]): 0.656 µM
Activity (MDA-MB-231 [1]): 54%
Activity (HeLa [13]): Active
Activity (MDA-MB-231 [2]): Active
Activity (HeLa [4]): inactive
Activity (HeLa [5]): Active
Activity (HeLa [6]): 200 nM
EC50 (HeLa [8]): 0.357 µM
IC50 [10]: 2.8 µM
IC50 (PBMC): 92.5 µM
IC50 (NIH3T3): 66 µM
IC50 (HUVEC): > 100 µM
IC50 (Jurkat): 1.2 µM
IC50 (REH): 1.05 µM
IC50 (L1210): 30 µM
